Consider two compounds from paper PMC3014912 (Journal of molecular modeling, 2010).

This assay concerns the target T1, human carboxylesterase 1 (hCE1) (Homo sapiens, UniProt P23141).
T1 sequence (P23141 18-567): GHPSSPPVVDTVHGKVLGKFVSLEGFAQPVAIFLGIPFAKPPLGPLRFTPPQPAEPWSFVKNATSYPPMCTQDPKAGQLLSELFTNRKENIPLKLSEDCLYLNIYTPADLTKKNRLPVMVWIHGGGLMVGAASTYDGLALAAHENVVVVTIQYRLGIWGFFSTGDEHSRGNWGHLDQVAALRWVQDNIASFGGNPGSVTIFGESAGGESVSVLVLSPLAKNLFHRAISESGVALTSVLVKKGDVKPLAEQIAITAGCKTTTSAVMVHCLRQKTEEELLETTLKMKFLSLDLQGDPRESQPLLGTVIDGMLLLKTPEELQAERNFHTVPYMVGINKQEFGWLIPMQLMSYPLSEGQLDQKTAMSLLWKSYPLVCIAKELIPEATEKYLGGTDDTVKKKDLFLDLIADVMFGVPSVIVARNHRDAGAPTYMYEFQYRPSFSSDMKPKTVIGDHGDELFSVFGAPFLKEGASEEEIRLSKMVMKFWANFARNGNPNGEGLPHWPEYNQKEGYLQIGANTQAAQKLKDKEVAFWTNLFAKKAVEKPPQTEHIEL
The assay is described as follows: hCE1 inhibition, p-nitrophenyl acetate hydrolysis. Type of assay: biochemical.

Each structure is given as a SMILES string.

The IC50 is the point on the concentration scale where inhibition reaches its midpoint. Low readings indicate inhibition by little substance, high ones a need for much substance. As for `CCCCCCCCOCC(=O)C(F)(F)F` [Compound 4, 1,1,1-trifluoro-3-octyloxypropan-2-one], the 50% inhibitory concentration (IC50) amounted to 0.02 µM.
Compound `CCCCCCCCCCC(C)=O` [Compound 9, 2-dodecanone, reference compound] had a half-inhibitory concentration (IC50) greater than 1000 µM.
